Test results published in PubChem BioAssay (NCI).
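Assay format: 96-well plates, 48-hour exposure. TGI denotes the concentration required for complete inhibition of growth.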

Assays:
Test in all cases: DTP human tumour cell line panel, 48 h
DU-145 prostate = system: DU-145 prostate
HCT-116 colon = system: HCT-116 colon
HCT-15 colon = system: HCT-15 colon
LOX IMVI melanoma = system: LOX IMVI melanoma
MOLT-4 leukemia = system: MOLT-4 leukemia
NCI-H23 lung = system: NCI-H23 lung
NCI-H522 lung = system: NCI-H522 lung
SF-539 CNS = system: SF-539 CNS
SN12C renal = system: SN12C renal

## CCOC(=O)/C=C(/C(=O)OCC)n1cc(C)c(=O)n(Cc2cn(CCCCOC(C)=O)nn2)c1=O
DU-145 prostate
  TGI: > 100 µM
HCT-116 colon
  TGI: 65 µM
HCT-15 colon
  TGI: > 100 µM
LOX IMVI melanoma
  TGI: 49.5 µM
MOLT-4 leukemia
  TGI: 24.9 µM
NCI-H23 lung
  TGI: 31.9 µM
NCI-H522 lung
  TGI: 4.53 µM
SF-539 CNS
  TGI: 19.1 µM
SN12C renal
  TGI: 91.7 µM

## COc1ccc(NCn2nc(CCCCCCCCc3nn(CNc4ccc(OC)cc4)c(=S)o3)oc2=S)cc1
DU-145 prostate
  TGI: > 100 µM
HCT-116 colon
  TGI: > 100 µM
HCT-15 colon
  TGI: > 100 µM
MOLT-4 leukemia
  TGI: > 100 µM
NCI-H23 lung
  TGI: > 100 µM
NCI-H522 lung
  TGI: > 100 µM
SN12C renal
  TGI: > 100 µM

## CC(C)(C)c1cc(C(C)(C)C)c(SC2OC(CO)C(O)C(O)C2O)c(O)c1O (centres undefined)
DU-145 prostate
  TGI: 31.8 µM
HCT-116 colon
  TGI: 29.1 µM
HCT-15 colon
  TGI: 18.8 µM
LOX IMVI melanoma
  TGI: 22.9 µM
MOLT-4 leukemia
  TGI: > 100 µM
NCI-H23 lung
  TGI: 17.9 µM
NCI-H522 lung
  TGI: 20.9 µM
SF-539 CNS
  TGI: 12.7 µM
SN12C renal
  TGI: 25.8 µM

## COc1cc(/C=C2\N=C(c3ccccc3)N(c3cc4cc(Sc5ccccc5)ccc4[nH]3)C2=O)ccc1O
DU-145 prostate
  TGI: > 50 µM
HCT-116 colon
  TGI: > 50 µM
HCT-15 colon
  TGI: > 50 µM
LOX IMVI melanoma
  TGI: > 50 µM
MOLT-4 leukemia
  TGI: > 50 µM
NCI-H23 lung
  TGI: > 50 µM
NCI-H522 lung
  TGI: > 50 µM
SF-539 CNS
  TGI: > 50 µM
SN12C renal
  TGI: > 50 µM

## CN1CCC(O)(OC(=O)C(c2ccccc2)C2(O)CCCC2)CC1 (centres undefined)
DU-145 prostate
  TGI: > 100 µM
HCT-116 colon
  TGI: > 100 µM
HCT-15 colon
  TGI: > 100 µM
LOX IMVI melanoma
  TGI: > 100 µM
MOLT-4 leukemia
  TGI: > 100 µM
NCI-H23 lung
  TGI: > 100 µM
NCI-H522 lung
  TGI: > 100 µM
SF-539 CNS
  TGI: > 100 µM
SN12C renal
  TGI: > 100 µM

## COc1ccc(-c2csc3c2[N+]2(C)C=CC=C2C3N2CCCC2)cc1 (centres undefined)
HCT-116 colon
  TGI: > 100 µM
HCT-15 colon
  TGI: > 100 µM
LOX IMVI melanoma
  TGI: > 100 µM
MOLT-4 leukemia
  TGI: > 100 µM
NCI-H23 lung
  TGI: 44.7 µM
NCI-H522 lung
  TGI: 19.1 µM
SF-539 CNS
  TGI: 57.7 µM

## CCOC(=O)C1=C(N2CCCC2)C(=O)C(C(=O)OCC)C1 (centres undefined)
HCT-116 colon
  TGI: > 100 µM
HCT-15 colon
  TGI: > 100 µM
LOX IMVI melanoma
  TGI: > 100 µM
MOLT-4 leukemia
  TGI: > 100 µM
NCI-H23 lung
  TGI: > 100 µM
NCI-H522 lung
  TGI: > 100 µM
SF-539 CNS
  TGI: > 100 µM
SN12C renal
  TGI: > 100 µM

## CC12CC(c3ccccc3O1)C(C(=O)Nc1nccs1)C(=O)N2 (centres undefined)
DU-145 prostate
  TGI: > 100 µM
HCT-116 colon
  TGI: > 100 µM
HCT-15 colon
  TGI: > 100 µM
LOX IMVI melanoma
  TGI: > 100 µM
MOLT-4 leukemia
  TGI: > 100 µM
NCI-H23 lung
  TGI: > 100 µM
NCI-H522 lung
  TGI: > 100 µM

## C[C@H](CCc1nc(C#N)c(N)o1)[C@H]1CC[C@H]2[C@@H]3CCC4C[C@@H](O)CC[C@]4(C)[C@H]3C[C@@H](O)[C@]12C (some centres undefined)
DU-145 prostate
  TGI: 28 µM
HCT-116 colon
  TGI: 26.4 µM
HCT-15 colon
  TGI: 29.5 µM
LOX IMVI melanoma
  TGI: 23.8 µM
MOLT-4 leukemia
  TGI: 20.2 µM
NCI-H23 lung
  TGI: 32.7 µM
NCI-H522 lung
  TGI: 16.2 µM
SF-539 CNS
  TGI: 27.6 µM
SN12C renal
  TGI: 24.6 µM

## Oc1ccc(Nc2nc(Cl)c3[nH]cnc3n2)cc1
DU-145 prostate
  TGI: > 100 µM
HCT-116 colon
  TGI: > 100 µM
HCT-15 colon
  TGI: > 100 µM
LOX IMVI melanoma
  TGI: > 100 µM
MOLT-4 leukemia
  TGI: > 100 µM
NCI-H23 lung
  TGI: > 100 µM
NCI-H522 lung
  TGI: > 100 µM
SF-539 CNS
  TGI: > 100 µM
SN12C renal
  TGI: > 100 µM

## O=C(NNC(=O)c1ccc(Cl)cc1NC(=O)C12CC3CC(CC(C3)C1)C2)c1ccc(Cl)cc1
DU-145 prostate
  TGI: 62.1 µM
HCT-116 colon
  TGI: 58.1 µM
HCT-15 colon
  TGI: 35.9 µM
LOX IMVI melanoma
  TGI: 37.7 µM
MOLT-4 leukemia
  TGI: 60.6 µM
NCI-H23 lung
  TGI: > 100 µM
NCI-H522 lung
  TGI: 36 µM
SF-539 CNS
  TGI: 46.6 µM
SN12C renal
  TGI: > 100 µM

## O=C1OC2(CCCCC2)C(Oc2ccc(Cl)cc2)=C1F
DU-145 prostate
  TGI: > 100 µM
HCT-116 colon
  TGI: > 100 µM
LOX IMVI melanoma
  TGI: > 100 µM
MOLT-4 leukemia
  TGI: 48.5 µM
NCI-H522 lung
  TGI: 95.9 µM
SF-539 CNS
  TGI: > 100 µM
SN12C renal
  TGI: > 100 µM
